Assays:
LexPR transactivator [1] = target: T1, LexPR transactivator (Homo sapiens, UniProt P06401); test: Mifepristone-induced EGFP reporter fluorescence in LexPR driver-reporter transgenic fish; assay type: in vivo, zebrafish
T1 construct: expressed in transfected cells; host or cells: germline-transgenic zebrafish (Danio rerio) carrying the Ds transposon driver cassette pDs(krt8:LPR-LOP:G4) or derivatives
T1 sequence (P06401 640-914): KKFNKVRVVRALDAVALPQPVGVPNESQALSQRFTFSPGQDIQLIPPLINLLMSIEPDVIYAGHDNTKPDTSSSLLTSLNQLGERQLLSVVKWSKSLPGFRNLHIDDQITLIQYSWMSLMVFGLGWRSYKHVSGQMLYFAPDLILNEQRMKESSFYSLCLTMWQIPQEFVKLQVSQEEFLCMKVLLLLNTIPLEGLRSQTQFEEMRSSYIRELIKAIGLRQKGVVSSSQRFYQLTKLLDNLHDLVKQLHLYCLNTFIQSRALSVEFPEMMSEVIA
Text: Generating transgenic fish using Ac/Ds transposon system: Transgenic fish carrying insertions of the driver and effector constructs containing Ds cis-required sequences (as described herein) were generated as previously described (Emelyanov et al., 2006). 5-10 pg of plasmid DNA was co-injected into zebrafish embryos (yolk center) with 25-50 pg of in vitro synthesized transposase mRNA at the 1-2-cell stage. […] Only the lines that segregated as a single locus (produced 1:1 ratio when outcrossed to nontransgenic fish) were selected.

LexPR transactivator [2] = target: T1, LexPR transactivator; test: Time required to switch off EGFP reporter expression after mifepristone withdrawal; assay type: in vivo, zebrafish; set-up: key to Reporter expression, RU486 incubation / Reporter expression after RU486 withdrawal / Reporter expression, continuous induction (time of RU486 incubation): +: Fluorescence signal is similar to the control.; ±: Fluorescence signal is obviously weaker that in control.; −: No EGFP fluorescence (except autofluorescence)observed using the fluorescent stereomicroscope
Text: To avoid confusion, the corresponding developmental times are indicated. A Nikon SMZ1600 fluorescent stereomicroscope was used for rough estimation of the EGFP fluorescence.

Reporter expression at lowest inducible concentration (LexPR transactivator [1]; 1 nM): significantly weaker reporter expression
EGFP expression induced (LexPR transactivator [1]; 10 nM, after 24 hours of incubation): Strong EGFP expression
Time until EGFP fluorescence was observed after adding mifepristone (LexPR transactivator [1]; 1 μM and 100 nM final concentration in growth water): 6 to 9 h
Lowest inducible concentration (LexPR transactivator [1]; EGFP reporter, growth water): 1 nM
Concentration required for effective transcription induction (LexPR transactivator [1]; in the growth water): 0.01 to 1 µM
Reporter expression, RU486 incubation (LexPR transactivator [2]; 1 nM, 1 hour RU486 incubation - withdrawal, at 1 h incubation, 37hpf): −
Reporter expression after RU486 withdrawal (LexPR transactivator [2]; 1 nM, 1 hour RU486 incubation, 12 h after withdrawal, 49hpf): −
Reporter expression after RU486 withdrawal (LexPR transactivator [2]; 1 nM, 1 hour RU486 incubation, 24 h after withdrawal, 61hpf): −
Reporter expression after RU486 withdrawal (LexPR transactivator [2]; 1 nM, 1 hour RU486 incubation, 48 h after withdrawal, 85hpf): −
Reporter expression after RU486 withdrawal (LexPR transactivator [2]; 1 nM, 1 hour RU486 incubation, 72 h after withdrawal, 109hpf): −
Reporter expression after RU486 withdrawal (LexPR transactivator [2]; 1 nM, 1 hour RU486 incubation, 96 h after withdrawal, 133hpf): −
Reporter expression after RU486 withdrawal (LexPR transactivator [2]; 1 nM, 1 hour RU486 incubation, 120 h after withdrawal, 157hpf): −
Reporter expression after RU486 withdrawal (LexPR transactivator [2]; 1 nM, 1 hour RU486 incubation, 144 h after withdrawal, 181hpf): −
Reporter expression, RU486 incubation (LexPR transactivator [2]; 1 nM, 12 hours RU486 incubation - withdrawal, at 12 h incubation, 48hpf): −
Reporter expression after RU486 withdrawal (LexPR transactivator [2]; 1 nM, 12 hours RU486 incubation, 12 h after withdrawal, 60hpf): ±
Reporter expression after RU486 withdrawal (LexPR transactivator [2]; 1 nM, 12 hours RU486 incubation, 24 h after withdrawal, 72hpf): −
Reporter expression after RU486 withdrawal (LexPR transactivator [2]; 1 nM, 12 hours RU486 incubation, 48 h after withdrawal, 96hpf): −
Reporter expression after RU486 withdrawal (LexPR transactivator [2]; 1 nM, 12 hours RU486 incubation, 72 h after withdrawal, 120hpf): −
Reporter expression after RU486 withdrawal (LexPR transactivator [2]; 1 nM, 12 hours RU486 incubation, 96 h after withdrawal, 144hpf): −
Reporter expression after RU486 withdrawal (LexPR transactivator [2]; 1 nM, 12 hours RU486 incubation, 120 h after withdrawal, 168hpf): −
Reporter expression after RU486 withdrawal (LexPR transactivator [2]; 1 nM, 12 hours RU486 incubation, 144 h after withdrawal, 192hpf): −
Minimal time after RU486 withdrawal to turn off the reporter expression (LexPR transactivator [2]; 1 nM, 12 hours induction): 1 days
Reporter expression, continuous induction (time of RU486 incubation) (LexPR transactivator [2]; 1 nM, 24-156 h incubation, 60-192 hpf): ±
Reporter expression, continuous induction (time of RU486 incubation) (LexPR transactivator [2]; 1 nM, 1 h incubation): −
Reporter expression, continuous induction (time of RU486 incubation) (LexPR transactivator [2]; 1 nM, 12 h incubation): −
Reporter expression, continuous induction (time of RU486 incubation) (LexPR transactivator [2]; 1 nM, 13 h incubation, 49hpf): −
Reporter expression, continuous induction (time of RU486 incubation) (LexPR transactivator [2]; 1 nM, 24 h incubation, 60hpf): ±
Reporter expression, RU486 incubation (LexPR transactivator [2]; 10 nM, 1 hour RU486 incubation - withdrawal, at 1 h incubation, 37hpf): −
Reporter expression after RU486 withdrawal (LexPR transactivator [2]; 10 nM, 1 hour RU486 incubation, 12 h after withdrawal, 49hpf): ±
Reporter expression after RU486 withdrawal (LexPR transactivator [2]; 10 nM, 1 hour RU486 incubation, 24 h after withdrawal, 61hpf): −
Reporter expression after RU486 withdrawal (LexPR transactivator [2]; 10 nM, 1 hour RU486 incubation, 48 h after withdrawal, 85hpf): −
Reporter expression after RU486 withdrawal (LexPR transactivator [2]; 10 nM, 1 hour RU486 incubation, 72 h after withdrawal, 109hpf): −
Reporter expression after RU486 withdrawal (LexPR transactivator [2]; 10 nM, 1 hour RU486 incubation, 96 h after withdrawal, 133hpf): −
Reporter expression after RU486 withdrawal (LexPR transactivator [2]; 10 nM, 1 hour RU486 incubation, 120 h after withdrawal, 157hpf): −
Reporter expression after RU486 withdrawal (LexPR transactivator [2]; 10 nM, 1 hour RU486 incubation, 144 h after withdrawal, 181hpf): −
Minimal time after RU486 withdrawal to turn off the reporter expression (LexPR transactivator [2]; 10 nM, 1 hour induction): 1 days
Reporter expression, RU486 incubation (LexPR transactivator [2]; 10 nM, 12 hours RU486 incubation - withdrawal, at 12 h incubation, 48hpf): ±
Reporter expression after RU486 withdrawal (LexPR transactivator [2]; 10 nM, 12 hours RU486 incubation, 12 h after withdrawal, 60hpf): +
Reporter expression after RU486 withdrawal (LexPR transactivator [2]; 10 nM, 12 hours RU486 incubation, 24 h after withdrawal, 72hpf): ±
Reporter expression after RU486 withdrawal (LexPR transactivator [2]; 10 nM, 12 hours RU486 incubation, 48 h after withdrawal, 96hpf): −
Reporter expression after RU486 withdrawal (LexPR transactivator [2]; 10 nM, 12 hours RU486 incubation, 72 h after withdrawal, 120hpf): −
Reporter expression after RU486 withdrawal (LexPR transactivator [2]; 10 nM, 12 hours RU486 incubation, 96 h after withdrawal, 144hpf): −
Reporter expression after RU486 withdrawal (LexPR transactivator [2]; 10 nM, 12 hours RU486 incubation, 120 h after withdrawal, 168hpf): −
Reporter expression after RU486 withdrawal (LexPR transactivator [2]; 10 nM, 12 hours RU486 incubation, 144 h after withdrawal, 192hpf): −
Minimal time after RU486 withdrawal to turn off the reporter expression (LexPR transactivator [2]; 10 nM, 12 hours induction): 2 days
Reporter expression, continuous induction (time of RU486 incubation) (LexPR transactivator [2]; 10 nM, 24-156 h incubation, 60-192 hpf): +
Reporter expression, continuous induction (time of RU486 incubation) (LexPR transactivator [2]; 10 nM, 1 h incubation): −
Reporter expression, continuous induction (time of RU486 incubation) (LexPR transactivator [2]; 10 nM, 12 h incubation): ±
Reporter expression, continuous induction (time of RU486 incubation) (LexPR transactivator [2]; 10 nM, 13 h incubation, 49hpf): ±
Reporter expression, continuous induction (time of RU486 incubation) (LexPR transactivator [2]; 10 nM, 24 h incubation, 60hpf): +
Reporter expression, RU486 incubation (LexPR transactivator [2]; 100 nM, 1 hour RU486 incubation - withdrawal, at 1 h incubation, 37hpf): −
Reporter expression after RU486 withdrawal (LexPR transactivator [2]; 100 nM, 1 hour RU486 incubation, 12 h after withdrawal, 49hpf): +
Structure (SMILES): CC#C[C@]1(O)CC[C@H]2[C@@H]3CCC4=CC(=O)CCC4=C3[C@@H](c3ccc(N(C)C)cc3)C[C@@]21C [mifepristone]

Source: patent publication US8852928B2, “LexA-based chemical-inducible gene expression system for use in transgenic animals” (Temasek Life Sciences Laboratory Limited, priority 2007, dated 2014)
